Structures are written as SMILES.

Take `CC1CN(C)CC(O)(c2ccccc2)O1` (centres undefined): the logP (as a rule, the decadic logarithm of the partition coefficient of the neutral form, usually between octanol and water) turned out to be 1.79.
To `CN1CCOC(O)(c2ccccc2)C1` (centres undefined) belongs 1.54; to `CCOC1(c2ccccc2)OCCN(C)C1C` (centres undefined), 2.27.
As for `CCOC1(c2ccccc2)CN(C)CC(C)O1` (centres undefined), the figure is 2.23.
As for `CC1C(c2ccccc2)OC(O)(c2ccccc2)CN1C` (centres undefined), the figure is 1.87.
`CC1N(C)CCOC1(O)c1ccccc1` (centres undefined) showed a logP of 1.92.
In turn, `CCCOC1(c2ccccc2)CN(C)CCO1` (centres undefined) had a logP of 2.13.
To `CN1CCOC(O)C1c1ccccc1` (centres undefined) belongs 0.99; to `C=CCOC1(c2ccccc2)CN(C)CCO1` (centres undefined), 2.09; to `CC(C)COC1(c2ccccc2)CN(C)CCO1` (centres undefined), 2.17.
To `CCCCOC1(c2ccccc2)CN(C)CCO1` (centres undefined) belongs 2.23.
To `CN1CCOC(O)(c2ccc(Br)cc2)C1` (centres undefined) belongs 1.57.
Molecule `C#CCOC1(c2ccccc2)CN(C)CCO1` (centres undefined) had a log partition coefficient (logP) of 1.87.
As for `CN1CCOC(O)(c2cccc(C(F)(F)F)c2)C1` (centres undefined), the figure is 1.39.

For the origin of these results see the OPERA property sets (Mansouri et al. 2018).
